Where a SMILES comes first, the peptide text is derived from it. The star is where a group is joined. Cbz = O=C(OCc1ccccc1)*
Target: 20S proteasome (rat liver) (Rattus norvegicus, UniProt P18421+P28075)
Assay: inhibition of suc-LLVY-AMC hydrolysis
Type: biochemical
Conditions: read-out: % inhibition at 10 uM

CC(C)C[C@@H](C=O)NC(=O)[C@H](CC(C)C)NC(=O)[C@H](CC(C)C)NC(=O)OCc1ccccc1 [MG-132] (Cbz-Leu-Leu-Leu-aldehyde)
inhibition at 10 µM: 90%
